ChEMBL document CHEMBL1201862, “PubChem BioAssay data set” (2004)
Active and inactive are the calls of the source.

Assays:
[1] = target: T1, Leucine aminopeptidase (Plasmodium falciparum 3D7, UniProt Q8IL11); experiment: P. falciparum M17LAP inhibitors, primary screen, biochemical, fluorogenic H-Leu-NHMec substrate, 1536-well (AID 1619); type: functional
T1 sequence (Q8IL11 whole entry): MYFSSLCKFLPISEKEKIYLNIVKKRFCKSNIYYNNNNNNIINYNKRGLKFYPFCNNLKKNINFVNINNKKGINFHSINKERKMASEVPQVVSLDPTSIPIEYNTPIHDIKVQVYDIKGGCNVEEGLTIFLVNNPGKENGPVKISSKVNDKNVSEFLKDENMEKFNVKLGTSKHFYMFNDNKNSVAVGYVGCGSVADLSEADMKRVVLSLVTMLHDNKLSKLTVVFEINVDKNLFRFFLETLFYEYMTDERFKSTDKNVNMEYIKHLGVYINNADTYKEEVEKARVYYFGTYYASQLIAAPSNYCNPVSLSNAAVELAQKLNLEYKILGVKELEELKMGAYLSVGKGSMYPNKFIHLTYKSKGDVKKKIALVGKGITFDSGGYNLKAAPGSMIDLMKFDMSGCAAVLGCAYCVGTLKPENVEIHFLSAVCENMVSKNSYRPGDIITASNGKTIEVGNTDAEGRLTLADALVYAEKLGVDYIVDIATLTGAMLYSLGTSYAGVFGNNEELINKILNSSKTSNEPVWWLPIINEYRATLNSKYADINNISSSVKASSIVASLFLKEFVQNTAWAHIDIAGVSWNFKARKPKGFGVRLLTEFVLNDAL

[2] = target: Peroxisome proliferator-activated receptor gamma/Nuclear receptor coactivator 1 (Homo sapiens, UniProt P37231); experiment: (§1) TR-FRET dose response biochemical High Throughput Screening assay for agonists of the steroid receptor coactivator 1 (SRC-1) recruitment by the peroxisome proliferator-activated receptor gamma (PPAR gamma): non-selective agonists. [Related pubchem assays (depositor defined):AID1300, AID1808, AID504735, AID631]; type: protein assay
[3] = target: Peroxisome proliferator-activated receptor gamma/Nuclear receptor coactivator 3 (Homo sapiens, UniProt P37231); experiment: as §1, with “3 (SRC-3)” for “1 (SRC-1)”, “assays: 1301 (Confirmation screen.), 1048 (Primary screen.)]” for “assays (depositor defined):AID1300, AID1808, AID504735, AID631]”; type: functional
[4] = target: Peroxisome proliferator-activated receptor gamma/Nuclear receptor coactivator 2 (Homo sapiens, UniProt P37231); experiment: TR-FRET dose response biochemical High Throughput Screening assay for agonists of the steroid receptor coactivator 2 (SRC-2) recruitment by the peroxisome proliferator-activated receptor gamma (PPAR gamma): non-selective agonists. [Related pubchem assays: 1297, 1032 ]; type: functional
[5] = target: T2, RNA-binding protein pos-1 (Caenorhabditis elegans, UniProt G5EF15); experiment: disruptors of C. elegans POS-1 RNA interaction – biochemical, fluorescence polarization, dose response (AID 1964);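 also: purified POS-1 fused to maltose binding protein made in E. coli; potency of compounds blocking POS-1 binding to fluorescent RNA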
T2 sequence (G5EF15 whole entry): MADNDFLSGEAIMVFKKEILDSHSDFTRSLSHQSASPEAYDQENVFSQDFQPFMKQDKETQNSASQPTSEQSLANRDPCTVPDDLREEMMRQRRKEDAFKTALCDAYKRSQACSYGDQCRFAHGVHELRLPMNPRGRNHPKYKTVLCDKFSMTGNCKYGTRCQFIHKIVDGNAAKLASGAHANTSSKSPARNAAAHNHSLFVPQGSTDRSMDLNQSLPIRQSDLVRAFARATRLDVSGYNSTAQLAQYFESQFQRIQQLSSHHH

[6] = target: T3, Zinc finger protein mex-5 (Caenorhabditis elegans, UniProt Q9XUB2); experiment: potency of MEX-5 RNA-binding blockers – biochemical, C. elegans, fluorescence polarization, dose response (AID 1960)
T3 sequence (Q9XUB2 whole entry): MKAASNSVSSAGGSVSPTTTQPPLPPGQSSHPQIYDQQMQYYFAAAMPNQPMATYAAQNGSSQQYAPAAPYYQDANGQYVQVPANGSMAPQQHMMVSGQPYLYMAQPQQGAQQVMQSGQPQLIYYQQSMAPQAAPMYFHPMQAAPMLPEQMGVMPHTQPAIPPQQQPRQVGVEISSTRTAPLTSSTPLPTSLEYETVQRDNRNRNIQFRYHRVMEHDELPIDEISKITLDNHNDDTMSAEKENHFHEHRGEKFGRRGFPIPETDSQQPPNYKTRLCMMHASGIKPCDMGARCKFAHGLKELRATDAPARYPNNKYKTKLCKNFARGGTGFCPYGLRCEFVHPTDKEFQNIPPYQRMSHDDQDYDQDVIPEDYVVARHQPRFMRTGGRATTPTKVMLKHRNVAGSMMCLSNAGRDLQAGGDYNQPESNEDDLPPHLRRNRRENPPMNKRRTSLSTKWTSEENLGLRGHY

[7] = target: Large T antigen (Simian virus 40, UniProt P03070); type: functional, Betapolyomavirus macacae;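 also: Confirmatory-stage PubChem screen for compounds that inhibit SV40 T antigen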
Large T antigen, sequence (P03070 whole entry): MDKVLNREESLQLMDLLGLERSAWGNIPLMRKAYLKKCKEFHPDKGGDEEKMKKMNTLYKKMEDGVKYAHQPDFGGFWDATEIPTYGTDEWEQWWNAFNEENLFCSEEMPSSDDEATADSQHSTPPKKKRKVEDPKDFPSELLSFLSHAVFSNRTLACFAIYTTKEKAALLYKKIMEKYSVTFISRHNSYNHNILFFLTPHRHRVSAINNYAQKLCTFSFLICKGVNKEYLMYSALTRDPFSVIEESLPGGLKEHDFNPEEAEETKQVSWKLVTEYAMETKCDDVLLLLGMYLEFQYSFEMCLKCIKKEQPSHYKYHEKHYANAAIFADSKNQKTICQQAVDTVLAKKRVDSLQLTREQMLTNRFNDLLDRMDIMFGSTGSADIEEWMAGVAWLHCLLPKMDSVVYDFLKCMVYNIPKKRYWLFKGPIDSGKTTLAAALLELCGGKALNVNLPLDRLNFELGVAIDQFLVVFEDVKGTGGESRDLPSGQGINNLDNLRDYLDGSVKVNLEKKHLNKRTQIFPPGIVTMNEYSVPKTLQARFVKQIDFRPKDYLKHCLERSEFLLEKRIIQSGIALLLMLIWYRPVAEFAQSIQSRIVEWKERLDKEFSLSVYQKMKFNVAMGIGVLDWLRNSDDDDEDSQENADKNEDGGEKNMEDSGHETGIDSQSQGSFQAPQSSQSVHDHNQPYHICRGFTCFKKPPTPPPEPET

[8] = target: Intestinal-type alkaline phosphatase (Homo sapiens, UniProt P09923); experiment: activation of human intestinal alkaline phosphatase – biochemical, dose response (AID 488873); type: functional
Intestinal-type alkaline phosphatase (Homo sapiens, UniProt P09923), sequence (P09923 whole entry): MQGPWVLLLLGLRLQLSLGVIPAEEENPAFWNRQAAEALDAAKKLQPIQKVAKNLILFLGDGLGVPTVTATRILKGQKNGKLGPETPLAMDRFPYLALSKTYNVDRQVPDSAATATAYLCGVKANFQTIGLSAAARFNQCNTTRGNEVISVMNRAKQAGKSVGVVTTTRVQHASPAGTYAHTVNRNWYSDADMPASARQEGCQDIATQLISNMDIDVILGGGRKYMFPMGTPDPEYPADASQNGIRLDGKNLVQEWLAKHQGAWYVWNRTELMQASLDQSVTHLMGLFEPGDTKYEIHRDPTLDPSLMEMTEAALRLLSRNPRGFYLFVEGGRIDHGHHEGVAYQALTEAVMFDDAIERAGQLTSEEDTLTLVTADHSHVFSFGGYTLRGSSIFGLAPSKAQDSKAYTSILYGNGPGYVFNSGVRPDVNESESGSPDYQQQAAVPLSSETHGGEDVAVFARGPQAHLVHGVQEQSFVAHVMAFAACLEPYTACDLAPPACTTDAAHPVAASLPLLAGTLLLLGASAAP

[9] = target: Intestinal-type alkaline phosphatase (Mus musculus, UniProt P24822); experiment: PubChem AID 488785; type: functional
Intestinal-type alkaline phosphatase (Mus musculus, UniProt P24822), sequence (P24822 whole entry): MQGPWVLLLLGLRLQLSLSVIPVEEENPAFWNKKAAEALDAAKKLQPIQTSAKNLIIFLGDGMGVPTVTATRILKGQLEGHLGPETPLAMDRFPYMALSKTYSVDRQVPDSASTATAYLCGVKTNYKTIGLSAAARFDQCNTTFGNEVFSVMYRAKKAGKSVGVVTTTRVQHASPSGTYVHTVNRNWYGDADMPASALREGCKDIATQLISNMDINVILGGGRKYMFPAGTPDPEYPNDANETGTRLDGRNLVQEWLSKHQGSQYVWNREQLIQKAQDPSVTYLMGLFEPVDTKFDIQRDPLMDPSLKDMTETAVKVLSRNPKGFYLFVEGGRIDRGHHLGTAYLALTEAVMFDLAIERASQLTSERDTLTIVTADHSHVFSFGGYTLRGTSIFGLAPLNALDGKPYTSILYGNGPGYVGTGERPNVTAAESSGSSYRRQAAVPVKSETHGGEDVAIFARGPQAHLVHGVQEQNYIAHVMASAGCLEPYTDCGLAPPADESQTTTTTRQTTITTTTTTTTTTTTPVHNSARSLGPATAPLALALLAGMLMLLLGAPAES

[10] = target: T4, Alkaline phosphatase, tissue-nonspecific isozyme (Homo sapiens, UniProt P05186); experiment: TNAP enzyme inhibition by screening hits, dose response, selectivity assay for mouse IAP inhibitor project, biochemical, human TNAP, uHTS hits (AID 488906); type: functional
T4 sequence (P05186 whole entry): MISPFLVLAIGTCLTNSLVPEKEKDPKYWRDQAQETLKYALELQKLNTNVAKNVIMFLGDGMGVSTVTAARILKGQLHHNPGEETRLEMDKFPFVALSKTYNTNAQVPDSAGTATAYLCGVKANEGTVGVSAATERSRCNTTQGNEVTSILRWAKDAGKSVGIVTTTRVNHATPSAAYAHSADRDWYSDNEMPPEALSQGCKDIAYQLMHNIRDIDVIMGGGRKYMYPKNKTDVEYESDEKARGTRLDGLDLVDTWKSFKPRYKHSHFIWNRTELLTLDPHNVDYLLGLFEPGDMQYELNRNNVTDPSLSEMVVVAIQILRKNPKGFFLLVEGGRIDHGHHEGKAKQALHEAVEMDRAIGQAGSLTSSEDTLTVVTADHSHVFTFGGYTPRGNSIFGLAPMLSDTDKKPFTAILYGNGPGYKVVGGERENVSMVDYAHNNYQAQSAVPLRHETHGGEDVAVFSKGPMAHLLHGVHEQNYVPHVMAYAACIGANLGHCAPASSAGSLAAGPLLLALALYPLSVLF

[11] = target: T5, High affinity choline transporter 1 (Homo sapiens, UniProt Q9GZV3); experiment: human choline transporter blockers, potency – cell-based, 5-point CRC, membrane potential dye, dose response (AID 504840); type: functional
T5 sequence (Q9GZV3 whole entry): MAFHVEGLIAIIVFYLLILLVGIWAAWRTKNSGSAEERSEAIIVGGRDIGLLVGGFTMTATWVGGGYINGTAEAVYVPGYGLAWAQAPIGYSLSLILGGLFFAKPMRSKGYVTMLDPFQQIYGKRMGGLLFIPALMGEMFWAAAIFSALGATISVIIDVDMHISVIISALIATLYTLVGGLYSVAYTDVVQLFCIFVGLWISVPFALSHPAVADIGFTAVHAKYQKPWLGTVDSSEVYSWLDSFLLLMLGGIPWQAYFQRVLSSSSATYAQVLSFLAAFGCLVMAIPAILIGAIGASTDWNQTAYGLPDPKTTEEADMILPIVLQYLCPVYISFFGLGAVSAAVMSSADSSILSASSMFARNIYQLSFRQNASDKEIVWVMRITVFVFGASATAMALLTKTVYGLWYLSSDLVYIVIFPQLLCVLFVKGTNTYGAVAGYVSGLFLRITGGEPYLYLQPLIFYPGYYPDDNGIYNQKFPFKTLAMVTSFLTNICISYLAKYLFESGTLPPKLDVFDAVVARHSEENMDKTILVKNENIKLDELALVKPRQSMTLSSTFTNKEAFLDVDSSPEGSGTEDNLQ

[12] = target: Ras and Rab interactor 1/Tyrosine-protein kinase ABL1 (Homo sapiens, UniProt P00519+Q13671); type: functional;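 also: biochemical TR-FRET dose-response test measuring inhibition of binding between Rin1 and Abl proteins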
Ras and Rab interactor 1/Tyrosine-protein kinase ABL1, sequence (P00519 whole entry): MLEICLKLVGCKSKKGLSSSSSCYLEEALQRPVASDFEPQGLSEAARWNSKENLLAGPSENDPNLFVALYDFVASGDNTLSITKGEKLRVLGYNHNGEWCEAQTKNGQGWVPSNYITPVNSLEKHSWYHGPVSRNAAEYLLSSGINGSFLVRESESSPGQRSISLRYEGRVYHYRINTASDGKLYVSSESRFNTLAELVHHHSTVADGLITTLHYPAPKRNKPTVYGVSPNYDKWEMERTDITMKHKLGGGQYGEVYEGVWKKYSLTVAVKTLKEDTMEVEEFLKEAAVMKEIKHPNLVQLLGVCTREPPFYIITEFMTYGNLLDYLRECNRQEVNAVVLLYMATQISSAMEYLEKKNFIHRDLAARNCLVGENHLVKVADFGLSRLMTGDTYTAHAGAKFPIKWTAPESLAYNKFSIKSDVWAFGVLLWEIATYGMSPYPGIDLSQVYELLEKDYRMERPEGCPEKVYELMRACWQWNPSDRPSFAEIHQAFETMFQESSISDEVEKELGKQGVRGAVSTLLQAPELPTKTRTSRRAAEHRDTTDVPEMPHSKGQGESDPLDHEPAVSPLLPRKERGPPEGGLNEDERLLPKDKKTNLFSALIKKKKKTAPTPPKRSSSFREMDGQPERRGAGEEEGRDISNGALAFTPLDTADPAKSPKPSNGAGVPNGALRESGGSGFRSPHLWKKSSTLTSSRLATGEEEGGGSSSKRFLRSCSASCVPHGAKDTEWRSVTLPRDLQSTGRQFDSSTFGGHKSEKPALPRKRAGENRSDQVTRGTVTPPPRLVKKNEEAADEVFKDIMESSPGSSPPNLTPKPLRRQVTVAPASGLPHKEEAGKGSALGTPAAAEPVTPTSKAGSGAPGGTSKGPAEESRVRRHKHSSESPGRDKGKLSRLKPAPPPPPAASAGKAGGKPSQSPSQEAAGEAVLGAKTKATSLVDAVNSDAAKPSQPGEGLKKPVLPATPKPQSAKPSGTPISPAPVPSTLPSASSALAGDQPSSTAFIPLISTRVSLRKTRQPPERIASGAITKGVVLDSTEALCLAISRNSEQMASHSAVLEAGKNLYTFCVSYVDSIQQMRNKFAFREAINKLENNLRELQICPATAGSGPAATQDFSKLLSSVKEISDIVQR
Ras and Rab interactor 1/Tyrosine-protein kinase ABL1, sequence (Q13671 whole entry): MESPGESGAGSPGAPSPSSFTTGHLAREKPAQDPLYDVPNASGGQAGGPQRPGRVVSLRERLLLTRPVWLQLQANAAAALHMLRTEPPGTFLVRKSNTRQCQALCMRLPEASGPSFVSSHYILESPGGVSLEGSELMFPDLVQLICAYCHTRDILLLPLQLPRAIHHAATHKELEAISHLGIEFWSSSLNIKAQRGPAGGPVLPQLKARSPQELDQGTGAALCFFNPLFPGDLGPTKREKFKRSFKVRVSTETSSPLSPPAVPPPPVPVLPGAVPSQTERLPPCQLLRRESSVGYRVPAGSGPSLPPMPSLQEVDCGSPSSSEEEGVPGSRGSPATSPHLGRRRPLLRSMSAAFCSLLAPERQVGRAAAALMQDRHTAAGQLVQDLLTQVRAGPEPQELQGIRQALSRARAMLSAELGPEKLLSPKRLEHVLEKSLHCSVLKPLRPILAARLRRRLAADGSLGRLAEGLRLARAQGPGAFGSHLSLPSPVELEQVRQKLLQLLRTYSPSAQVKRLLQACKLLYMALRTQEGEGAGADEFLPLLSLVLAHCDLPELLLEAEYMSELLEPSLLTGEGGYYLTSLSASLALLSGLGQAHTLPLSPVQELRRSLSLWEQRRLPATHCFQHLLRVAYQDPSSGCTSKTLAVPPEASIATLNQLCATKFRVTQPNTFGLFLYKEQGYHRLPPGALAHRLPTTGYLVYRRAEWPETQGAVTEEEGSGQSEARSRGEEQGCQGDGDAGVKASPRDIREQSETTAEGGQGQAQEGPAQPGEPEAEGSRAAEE

[13] = target: Albumin (Bos taurus, UniProt P02769); experiment: Counterscreen for inhibitors of T-cell receptor (TCR)-CD3 interaction: Fluorescence-based biochemical high throughput dose response assay to identify inhibitors of T-cell receptor (TCR)-CD3 interaction using a TAMRA-labeled BSA probe.; type: functional
Albumin, sequence (P02769 whole entry): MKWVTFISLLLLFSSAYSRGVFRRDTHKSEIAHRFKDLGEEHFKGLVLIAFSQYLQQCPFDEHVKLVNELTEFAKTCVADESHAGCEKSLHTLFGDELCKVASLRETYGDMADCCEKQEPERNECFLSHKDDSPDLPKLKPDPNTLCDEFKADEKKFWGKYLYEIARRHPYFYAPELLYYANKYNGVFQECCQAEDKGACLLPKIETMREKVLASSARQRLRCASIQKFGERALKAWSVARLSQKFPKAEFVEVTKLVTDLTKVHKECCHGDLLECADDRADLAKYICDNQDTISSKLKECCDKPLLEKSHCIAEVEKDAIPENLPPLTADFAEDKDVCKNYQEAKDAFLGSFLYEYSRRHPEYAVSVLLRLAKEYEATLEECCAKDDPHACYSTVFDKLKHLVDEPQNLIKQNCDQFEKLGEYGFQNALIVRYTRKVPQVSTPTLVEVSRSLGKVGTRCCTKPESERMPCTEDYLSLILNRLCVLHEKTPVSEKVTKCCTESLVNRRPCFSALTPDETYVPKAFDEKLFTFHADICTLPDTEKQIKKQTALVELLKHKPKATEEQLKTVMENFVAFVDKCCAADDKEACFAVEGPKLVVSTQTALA

| Structure (SMILES) | IC50 [1] | EC50 [2] | EC50 [3] | EC50 [4] | EC50 [5] | EC50 [6] | IC50 [7] | EC50 [8] | IC50 [9] | IC50 [10] | IC50 [11] | IC50 [12] | IC50 [13] |
| --- | --- | --- | --- | --- | --- | --- | --- | --- | --- | --- | --- | --- | --- |
| CCc1nnc(NS(=O)(=O)c2ccc(N/C=C\C(=O)c3cccc4ccccc34)cc2)s1 | 10.1 µM (active) | > 79.4 µM (inactive) | > 8.82 µM (not active) | > 79.4 µM (not active) |  |  |  |  |  |  |  |  |  |
| Oc1ccc(C[C@H]2NCCc3cc(O)c(O)cc32)cc1O |  |  |  |  | 6.36 µM (active) | 5.43 µM (active) | 9.06 µM (active) | > 100 µM (inactive) | 8.06 µM (active) | 10.1 µM (active) | 0.47 µM (active) | 2.33 µM (active) | > 94.1 µM (inactive) |
